Experimental data from patent publication US4868303A, “Bis-dioxopiperazine derivatives” (Zenyaku Kogyo Kabushiki Kaisha, priority 1986, dated 1989).
Where a name gives a salt, the structure may show the parent alone.

Assays:
[1] = test system: P388 lymphocytic leukemia; assay: Growth inhibition of tumor cells of P388 lymphocytic leukemia in vitro; type: cell-based, mouse (CDF1); settings: Mus musculus, 48 hours at 37° C., read-out: 50% Inhibitory concentration of cell growth (IC50)
Experimental: (I) Growth Inhibition of Tumor Cells of P388 Lymphocytic Leukemia in Vitro:
Tumor cells were collected aseptically with capillary tube from ascites in CDF1 female mice transplanted intraperitoneally with 1×10^6cells of P388 lymphocytic leukemia 5 days before. Cell suspension was prepared at 5×10^4 cells/0.5 ml in a RPMI1640 medium supplemented with 10% fetal calf serum, kanamycin (0.1 mg/ml) and 2-hydroxyethyldisulfide (0.01 mM). Each test sample was dissolved or suspended in the medium at a concentration of 1×10^-1 -1×10^-5 mM.
A test tube with Molton stopper loosely involving 0.5 ml each of the cell suspension and the sample suspension was kept for 48 hours at 37° C. in an incubator supplied with air containing 5% carbon dioxide. […] The cells harvested therefrom was counted by using of a Coulter Counter and the inhibition of cell growth was calculated by the following formula:
Growth Inhibition (%)=(1-T/C)×100
T: number of cells in the culture containing test sample
C: number of cells in the culture of control

V79 cells = assay: Inhibitory effect on colony formation of V79 cells in vitro; type: cell-based, Chinese hamster; settings: Cricetulus griseus, 96 hours with sample, read-out: 90% inhibitory concentration (IC90)
Experimental: (II) Inhibitory effect on Colony Formation of V79 Cells in Vitro:
V79 cells established from Chinese hamster lung fibroblastoma were cultured routinely on plastic dishes (.phi. 60 mm) in RPMI 1640 medium supplemented with 10% fetal calf serum and kanamycin (0.1 mg/ml). Each confluent culture was then trypsinized by the addition of 1 ml of trypsin-EDTA solution (supplied by the firm GIBCO) for 5 minutes at 37° C. in an incubator supplied with humidified air containing 5% CO2.
Homogeneous suspension of V79 cells thus obtained was diluted to 100, 200 and 400 viable cells/ml with the medium, and 1 ml each of them was transferred to other plastic dishes (.phi. 60 mm) containing 1.85 ml of the medium, and diluted to 100, 200 and 400 viable cells/dish.
Each test sample was dissolved in DMSO at the concentration of 20 mM and diluted with the medium to the final concentration of 2×10^-3 -2×10^-10 mM.
Each test dish was kept for 24 hours at 37° C. in an incubator supplied with humidified air containing 5% CO2, and was further cultured for 96 hours after 150 μl of the sample solution was added thereto.
The cells were gently washed once with Mg- and Ca-free phosphate-buffered saline [PBS(-)] and fixed with 1 ml of 3.5% HCHO-PBS(-) solution for 2 hours, then stained with a crystal violet ethanol solution.
The 90% inhibitory concentration (IC90) was calculated by comparing the number of visible colonies on the sample dish with that on the control dish.

[2] = test system: P388 lymphocytic leukemia; assay: Increase in life span on P388 lymphocytic leukemia tumor-transplanted mouse; type: in vivo, mouse (CDF1); settings: P388, ip, 24 h, intraperitoneal, day 1 and 5th day after transplantation, read-out: Rate of increase in life span (ILS); for ILS at 2.5 mg/kg: daily dose 2.5 mg/kg; for ILS at 2.2 mg/kg: daily dose 2.2 mg/kg; for ILS at 3 mg/kg: daily dose 3.0 mg/kg
Experimental: (III) Increase in Life Span on P388 Lymphocytic Leukemia Tumor-transplantedMouse:
The treated group to which the test sample was administered consisted of seven mice, while the control group consisted of ten mice. Six weeks old male mice (CDF1, 25±2 g of body weight) were employed as host animals.
Tumor cells (1.0×10^6) of P388 lymphocytic leukemia were transplanted intraperitoneally into each mouse. The treatment was effected one day after the transplantation and on 5th day by administering prescribed dose of each test sample intraperitoneally to the mice.
Antitumor activity of the test sample was evaluated by the rate of increase in life span (ILS) which was calculated with the following formula.
T': median survival time of treated mice
C': median survival time of control mice

SMILES	IC50 [1] [nM]	IC90 (V79 cells) [nM]	other results
C[C@H]([C@H](C)N1CC(=O)N(COC(=O)Cc2ccccc2Cl)C(=O)C1)N1CC(=O)NC(=O)C1 (relative stereo) [Sample 10, erythro-2-[4-(2-chlorophenylacetoxymethyl)-3,5-dioxopiperazin-1-yl]-3-(3,5-dioxopiperazin-1-yl)butane]	7.1	0.073	ILS at 2.5 mg/kg [2]: 162%
C[C@H]([C@H](C)N1CC(=O)N(COC(=O)OCc2ccccc2)C(=O)C1)N1CC(=O)N(COC(=O)OCc2ccccc2)C(=O)C1 [Sample 17, meso-2,3-bis(4-benzyloxycarbonyloxymethyl-3,5-dioxopiperazin-1-yl)butane]	56		ILS at 3.2 mg/kg ([2]; daily dose 3.2 mg/kg): 179%
C[C@H]([C@H](C)N1CC(=O)N(COC(=O)c2ccccc2)C(=O)C1)N1CC(=O)NC(=O)C1 (relative stereo) [Sample 13, erythro-2-(4-benzoyloxymethyl-3,5-dioxopiperazin-1-yl)-3-(3,5-dioxopiperazin-1-yl)butane]	38		ILS at 2.2 mg/kg [2]: 118%
CC(C(C)N1CC(=O)N(COC(=O)C=Cc2cccc(Cl)c2)C(=O)C1)N1CC(=O)N(COC(=O)C=Cc2cccc(Cl)c2)C(=O)C1 (stereo not drawn) [Sample 4, meso-2,3-bis[4-(3-chlorocinnamoyloxymethyl)-3,5-dioxopiperazin-1-yl]butane]	240		
C[C@H]([C@H](C)N1CC(=O)N(COC(=O)OCc2ccccc2)C(=O)C1)N1CC(=O)NC(=O)C1 (relative stereo) [Sample 19, erythro-2-(4-benzyloxycarbonyloxymethyl-3,5-dioxopiperazin-1-yl)-3-(3,5-dioxopiperazin-1-yl)butane]	11	0.09	ILS at 2.4 mg/kg ([2]; daily dose 2.4 mg/kg): 132%
C[C@H]([C@H](C)N1CC(=O)N(COC(=O)c2ccco2)C(=O)C1)N1CC(=O)NC(=O)C1 (relative stereo) [Sample 18, erythro-2-[4-(2-furoyloxymethyl)-3,5-dioxopiperazin-1-yl]-3-(3,5-dioxopiperazin-1-yl)butane]	42	0.1	ILS at 2.2 mg/kg [2]: 185%
C[C@H]([C@H](C)N1CC(=O)N(COC(=O)OCc2ccc([N+](=O)[O-])cc2)C(=O)C1)N1CC(=O)N(COC(=O)OCc2ccc([N+](=O)[O-])cc2)C(=O)C1 [Sample 8, meso-2,3-bis[4-(4-nitrobenzyloxycarbonyloxymethyl)-3,5-dioxopiperazin-1-yl]butane]	150		
C[C@H]([C@H](C)N1CC(=O)N(COC(=O)Cc2ccccc2Cl)C(=O)C1)N1CC(=O)N(COC(=O)Cc2ccccc2Cl)C(=O)C1 [Sample 2, meso-2,3-bis[4-(2-chlorophenylacetoxymethyl)-3,5-dioxopiperazin-1-yl]butane]	8.6		ILS at 3.4 mg/kg ([2]; daily dose 3.4 mg/kg): 107%
CC(C)COC(=O)OCN1C(=O)CN([C@H](C)[C@H](C)N2CC(=O)N(COC(=O)OCC(C)C)C(=O)C2)CC1=O [Sample 7, meso-2,3-bis(4-isobutoxycarbonyloxymethyl-3,5-dioxopiperazin-1-yl)butane]	84	0.0045	ILS at 3 mg/kg [2]: 104%
C[C@H]([C@H](C)N1CC(=O)N(COC(=O)OCc2ccc([N+](=O)[O-])cc2)C(=O)C1)N1CC(=O)NC(=O)C1 (relative stereo) [Sample 15, erythro-2-[4-(4-nitrobenzyloxycarbonyloxymethyl)-3,5-dioxopiperazin-1-yl]-3-(3,5-dioxopiperazin-1-yl)butane]	240		ILS at 2.6 mg/kg ([2]; daily dose 2.6 mg/kg): 177%
C[C@H]([C@H](C)N1CC(=O)N(COC(=O)COc2ccc(Cl)cc2Cl)C(=O)C1)N1CC(=O)N(COC(=O)COc2ccc(Cl)cc2Cl)C(=O)C1 [Sample 3, meso-2,3-bis[4-(2,4-dichlorophenoxyacetoxymethyl)-3,5-dioxopiperazin-1-yl]butane]	71		
CC(C)COC(=O)OCN1C(=O)CN(CCN2CC(=O)N(COC(=O)OCC(C)C)C(=O)C2)CC1=O [Sample A, 1,2-bis(4-isobutoxycarbonyloxymethyl-3,5-dioxopiperazin-1-yl)ethane, reference compound]	16000	110	ILS at 3 mg/kg [2]: 5%; ILS at 250 mg/kg ([2]; daily dose 250 mg/kg (*Adequate dose)): 106%
C[C@H]([C@H](C)N1CC(=O)N(COC(=O)[C@H](NC(=O)OC(C)(C)C)c2ccccc2)C(=O)C1)N1CC(=O)N(COC(=O)[C@H](NC(=O)OC(C)(C)C)c2ccccc2)C(=O)C1 [Sample 5, meso-2,3-bis[4-[(R)-2-N-tert-butoxycarbonylamino-2-phenylacetoxymethyl]-3,5-dioxopiperazin-1-yl]butane]	32		
C[C@H]([C@H](C)N1CC(=O)N(COC(=O)c2ccccc2)C(=O)C1)N1CC(=O)N(COC(=O)c2ccccc2)C(=O)C1 [Sample 16, meso-2,3-bis(4-benzoyloxymethyl-3,5-dioxopiperazin-1-yl)butane]	250	0.098	ILS at 3 mg/kg [2]: 150%
C[C@H]([C@H](C)N1CC(=O)N(COC(=O)[C@H](N)c2ccccc2)C(=O)C1)N1CC(=O)N(COC(=O)[C@H](N)c2ccccc2)C(=O)C1 [Sample 6, meso-2,3-bis[4-[(R)-2-amino-2-phenylacetoxymethyl]-3,5-dioxopiperazin-1-yl]butane trifluoroacetate]	52		
C[C@H]([C@H](C)N1CC(=O)NC(=O)C1)N1CC(=O)NC(=O)C1 [Sample B, meso-2,3-bis(3,5-dioxopiperazin-1-yl)butane, reference compound]		5.3	
CC(=O)OCN1C(=O)CN([C@H](C)[C@H](C)N2CC(=O)N(COC(C)=O)C(=O)C2)CC1=O [Sample 1, meso-2,3-bis(4-acetoxymethyl-3,5-dioxopiperazin-1-yl)butane]	300	0.089	ILS at 1.5 mg/kg ([2]; daily dose 1.5 mg/kg): 152%
CC(=O)OCN1C(=O)CN([C@@H](C)[C@@H](C)N2CC(=O)NC(=O)C2)CC1=O (relative stereo) [Sample 9, erythro-2-(4-acetoxymethyl-3,5-dioxopiperazin-1-yl)-3-(3,5-dioxopiperazin-1-yl)butane]	74		
C[C@H]([C@H](C)N1CC(=O)N(COC(=O)COc2ccc(Cl)cc2Cl)C(=O)C1)N1CC(=O)NC(=O)C1 (relative stereo) [Sample 11, erythro-2-[4-(2,4-dichlorophenoxyacetoxymethyl)-3,5-dioxopiperazin-1-yl]-3-(3,5-dioxopiperazin-1-yl)butane]	77	0.082	ILS at 2.7 mg/kg ([2]; daily dose 2.7 mg/kg): 132%
CC(C(C)N1CC(=O)N(COC(=O)C=Cc2cccc(Cl)c2)C(=O)C1)N1CC(=O)NC(=O)C1 (stereo not drawn) [Sample 12, erythro-2-[4-(3-chlorocinnamoyloxymethyl)-3,5-dioxopiperazin-1-yl]-3-(3,5-dioxopiperazin-1-yl)butane]	11	0.098	ILS at 2.5 mg/kg [2]: 90%
